Reference: ChEMBL document CHEMBL3507680, “University of Dundee, Gates Library screen for HepG2 cell viability”

Assay: Human HepG2 cell viability assay in 384 well format
Assay type: toxicity, cell-based
Set-up: dose 125 nL, time 70.5 hour; concentration not given beside the values
Details: HepG2 cells, read-out: Inhibition

Row | Structure (SMILES) | cytotoxicity at 70.5 h [%]
1 | CCC(CN1CCCC1)NC(=O)Cc1c(C)[nH]c2cc(C)cc(C)c12 (centres undefined) | -4.71
2 | CCC(CN1CCOCC1)NC(=O)Cc1c(C)[nH]c2cc(C)cc(C)c12 (centres undefined) | 0.203
3 | O=C(Cn1cc(Cl)cn1)N1CCCC(c2cc3ccccc3cn2)C1 (centres undefined) | 23.4
4 | COCC(=O)N1CCC(c2cc3ncccc3c(O)n2)CC1 | -7.25
5 | O=C(NCCO)C1(Cc2ccccc2-c2ccncc2)CCOCC1 | -7.35
6 | O=C(CCC1CCCC1)N1CCC(c2cc3ncccc3c(O)n2)CC1 | 0.616
7 | CCc1nnsc1C(=O)NCCCC(CC)(CC)C1OCCO1 | -15.8
8 | CC(C)(C)CC(=O)N1CCc2sccc2C1 | -7.51
9 | CC1(C)COCCN1C(=O)CCc1nc(-c2ccc(Cl)cc2)no1 | -20
10 | NC(=O)C(NC(=O)c1ccc(NC2CC2)nc1)c1ccccc1 (centres undefined) | -5.49
11 | CCCc1c(C(=O)N2CCN(c3ncccn3)CC2)cnn1C | -10.6
12 | Cc1cccc(CS(=O)(=O)Cc2ccn(C)c(=O)c2)c1 | -12.8
13 | COC(=O)C(NC(=O)c1ccc(NC2CC2)nc1)c1ccccc1 (centres undefined) | -5.38
14 | N#Cc1ccc(Cn2cncn2)c(F)c1 | -12.7
15 | COc1ccc(CNCCc2cccc(C(N)=O)c2)cc1O | -6.24
16 | O=C(NC1CCc2nccn2C1)c1ccc(NC2CC2)nc1 (centres undefined) | -12
17 | CC(CCc1cccn1C)NC(=O)Nc1cccn(C)c1=O (centres undefined) | -10.4
18 | Cc1ccc(S(=O)(=O)N(C)Cc2cnccn2)cc1N(C)C | -1.07
19 | O=C(CNc1nc(C2CC2)ns1)N1CCc2sccc2C1 | -10.8
20 | O=C(c1ccc[nH]1)N1CCN(C(c2ccccc2)C(F)(F)F)CC1 (centres undefined) | -7.16
21 | O=C(Cc1ccon1)N(CCC(F)(F)F)C1CCCC1 | -3.19
22 | O=C(Cc1cccc(F)c1F)NS(=O)(=O)c1cncc(Cl)c1 | -2.5
23 | CC(C)C(C)NC(=O)Nc1cccn(C)c1=O (centres undefined) | 4.29
24 | Cc1cc(F)ccc1N1CCCC(NS(=O)(=O)CCCF)C1=O (centres undefined) | -6.3

Row | Structure (SMILES) | cytotoxicity at 70.5 h [%]
25 | CCS(=O)(=O)NC1CCCN(c2cc(C)ccc2F)C1=O (centres undefined) | -1.61
26 | COc1ccccc1CC(C)N(C)S(C)(=O)=O (centres undefined) | -6.61
27 | CNS(=O)(=O)Cc1cccc(CNCc2ccsc2)c1 | -8.06
28 | CCC(=O)N(C)Cc1cccc(OC(C)C)c1 | -5.79
29 | CSc1cccc(NC(=O)CCC(=O)Nc2nccs2)c1 | 14.4
30 | Cn1cc(NC(=O)c2cccc(-n3cnnn3)c2)cn1 | -13.6
31 | N#CC1(C(=O)N2CCOC(c3ccc(Cl)cc3)C2)CCCC1 (centres undefined) | -15.9
32 | Cc1cc(C)c(S(N)(=O)=O)cc1C(=O)NCCN1CCCCC1 | -16.1
33 | CN(Cc1ccc(F)cc1)C(=O)c1ccoc1CN1CCNC(=O)C1 | -18.2
34 | COc1ccccc1CCNC(=O)NCC(=O)Nc1cccnc1 | -0.968
35 | CCC(=O)Nc1nnc2n(Cc3cccc(OC)c3)[nH]c(C)c1-2 | -0.289
36 | CC(C)(C)CNC(=O)c1ccc(C(=O)O)cn1 | 23.3
37 | COc1ccccc1CC(C)(C)C(=O)NCC(=O)Nc1cccnc1 | 3.9
38 | CSCC(=O)NC1(c2cccc(Cl)c2)CC1 | -3.77
39 | NC(=O)CSCC(=O)NC1(c2cccc(Cl)c2)CC1 | 2.26
40 | CC(C)c1nc(C2CCCN2C(=O)c2cc(Cl)c[nH]2)no1 (centres undefined) | -2.12
41 | N#Cc1ccc(S(=O)(=O)NC(=O)C2CC(c3ccccc3)=NO2)cc1 (centres undefined) | -12.1
42 | O=C(Cc1ccc(F)cc1F)NCC(=O)Nc1ccccn1 | -5.81
43 | CC(C)n1nnnc1-c1ccc(NC(=O)CCC(F)(F)F)cc1F | -18
44 | CSC(C)C(=O)Nc1ccnn1-c1ccccc1C (centres undefined) | 31.2
45 | O=C(NCC(O)c1cccc(F)c1)c1sccc1OC(F)F (centres undefined) | -3.42
46 | CCc1nc(Cn2cncc(Br)c2=O)no1 | -8.84
47 | CN1CCC(N(Cc2ccco2)S(=O)(=O)c2ccc(Br)cc2Cl)CC1 | 1.77
48 | CN1CCC(N(Cc2ccco2)S(=O)(=O)c2cc(Br)ccc2Br)CC1 | 1.03

Row | Structure (SMILES) | cytotoxicity at 70.5 h [%]
49 | CN1CCC(N(Cc2ccco2)S(=O)(=O)c2ccc(Cl)cc2)CC1 | -3.29
50 | Cc1ccc(OCC(=O)NS(=O)(=O)Cc2ccccc2)cc1 | -5.22
51 | Cc1nnc(NCCc2coc(-c3ccc(F)cc3)n2)c(C#N)c1C | -13.9
52 | O=C(Nc1ccc(-c2ccccc2)cn1)C1CCN(C(=O)C2CC2)CC1 | -1.82
53 | Cc1ccc(-c2noc(CNCC3CN(C)CCO3)n2)cc1F (centres undefined) | -5.24
54 | Cc1ccc2oc(N3CCN(CC(=O)NC(C)C)CC3)nc2c1 | 10.6
55 | Cc1cc(C)n(CC2CCCN2Cc2cccc(C#N)c2)n1 (centres undefined) | -3.89
56 | Cc1ccc(CN(C)C(=O)NCC(C)(C)NS(C)(=O)=O)s1 | -3.9
57 | CC(=O)c1cccc(OCC(=O)N(CC(C)C)C2CCN(C)CC2)c1 | 10.2
58 | CC(C)CC(C)(CNC(=O)c1cnccn1)NC(=O)c1cnccn1 (centres undefined) | -0.237
59 | O[C@@H]1CN(Cc2cc(Cl)cc3cccnc23)C[C@@H]1O | -4.72
60 | Cc1ncc(S(=O)(=O)Nc2ccnn2C(C)C)[nH]1 | 3.96
61 | COC(C)c1cccc(NCc2ccsc2)c1 (centres undefined) | -2.9
62 | CC(C)(CNC(=O)C1(c2cccc(Br)c2)CCOCC1)C(=O)O | -0.158
63 | O=C(NCC(O)c1cccs1)c1sccc1OC(F)F (centres undefined) | -3.63
64 | CCc1ncc2c(n1)CN(CC1CCCCO1)CC2 (centres undefined) | 8.28
65 | Cc1cc(C2CCCN(C(=O)COc3ccc(F)cc3F)C2)n[nH]1 (centres undefined) | -4.95
66 | CCOC(=O)N(C)C1CCN(Cc2ccsc2)CC1 | 19.3
67 | CN(CCOc1ccc(C#N)cc1)CC1CC1 | 3.53
68 | O=C(CCn1ccnn1)N1CCCC(n2cncn2)C1 (centres undefined) | -6.6
69 | CC1CN(C)CCN1C(=O)Cc1cc(Cl)c2c(c1)OCCO2 (centres undefined) | -6.51
70 | COc1c(C2CCCN2CC(=O)Nc2nccs2)c(C)nn1C (centres undefined) | -2.85
71 | COc1cccc(CCC(=O)Nc2cnc3c(c2)c(C)nn3C)c1OC | -14.1
72 | Cc1noc(CNc2cc3c(cc2Cl)NC(=O)CO3)n1 | -10.2

Row | Structure (SMILES) | cytotoxicity at 70.5 h [%]
73 | COC1CCN(c2ccc(F)cc2CN(C)S(C)(=O)=O)CC1 | -8.29
74 | COC1CCN(c2ccc(F)cc2CN(C)CC(N)=O)CC1 | -4.87
75 | Cc1cc2n(n1)CC(CNCc1cc(C)on1)CN2 (centres undefined) | -9.53
76 | CCOc1ccc2cc(C(=O)NCCNc3ccc(C)nn3)[nH]c2c1 | -8.09
77 | Cc1cc(C)n(CC2CCN(CC(O)COc3ccccc3)CC2)n1 (centres undefined) | -6.54
78 | CCc1nnc2n1CCN(C(=O)C(C)Oc1ccc(C#N)cc1)C2 (centres undefined) | -10.1
79 | CC(C)(C)c1nc(CNc2cc3c(cc2Cl)NC(=O)CO3)no1 | -7.93
80 | CCN(CC)C(=O)CS(=O)(=O)c1cc(OC)c(OC)cc1C | -9.5
81 | COCCNC(=O)N1CCN(c2cc(F)ccc2F)CC1 | -10.1
82 | Cc1nc(NC(=O)C(C)N(C)Cc2ccc3c(c2)OCO3)sc1C (centres undefined) | -5.16
83 | CCS(=O)(=O)N1Cc2ccccc2CC1C(=O)OCc1cc(C)no1 (centres undefined) | -7.63
84 | CCC(C)C(=O)N(C)Cc1cc(F)ccc1N1CCC(OC)CC1 (centres undefined) | -10.5
85 | CC1COCCN1C(=O)Cc1cc(Cl)c2c(c1)OCCO2 (centres undefined) | -12.3
86 | Cc1cc(C2CCCN(Cc3nc(Cc4ccccc4)no3)C2)n[nH]1 (centres undefined) | -10.9
87 | O=C(CCn1ccnc1)N1CCCC(n2cncn2)C1 (centres undefined) | 10.1
88 | O=C(CCCn1cccn1)N1CCCC(n2cncn2)C1 (centres undefined) | 1.52
89 | COc1ccc(OC)c(CNCc2c(C)nc3sc(C)cn23)c1 | 16.5
90 | O=C(c1ccc(CN2CC(n3cccn3)C2)cc1)N1CCCC1 | -0.354
91 | CNC(=O)c1ccc(CN(C)c2ccc(C(F)(F)F)cn2)cc1 | 6.65
92 | Cc1ccccc1C1(C(=O)N2CCOC(C)C2)CCOCC1 (centres undefined) | -5.13
93 | COCCCNC(=O)c1c[nH]c2ccc(OC)cc12 | -1.45
94 | COC(=O)CCNC(=O)c1c[nH]cc1-c1cccc(OC)c1 | 3.36
95 | COC(=O)C(C)CN(Cc1ccccc1)C(=O)CN1CCCNC1=O (centres undefined) | -0.248
96 | COc1c(NS(=O)(=O)c2ccc(F)c(C)c2)c(C)nn1C | 0.334

Row | Structure (SMILES) | cytotoxicity at 70.5 h [%]
97 | Cc1cc(NC(=O)CCCn2ccnc2C)nc(C(C)C)n1 | 0.794
98 | CNC(=O)c1cccnc1NCCOc1ccccc1 | -0.952
99 | O=C1CN(C(=O)CSC2CCCc3ccccc32)CCN1 (centres undefined) | 5.33
100 | CC(C)n1nc2c(cc1=O)CN(c1nc3ccccc3s1)CC2 | 3.31
101 | c1ccc2nc(N3CCCCC3)c(NCc3nnc4n3CCC4)nc2c1 | -8.39
102 | Fc1ccc(C2(NCc3ccccc3)CCOCC2)cc1 | -3.51
103 | Cc1cc(CN(C)Cc2csc(-c3ccc(C(C)C)cc3)n2)no1 | 14.4
104 | Cc1cccc(C)c1NC(=O)CNC(C)Cc1ccsc1 (centres undefined) | 32.9
105 | CCn1cc(CNc2ccc(Br)c(OC)c2)cn1 | 4.22
106 | N#Cc1ncn(CCS(=O)(=O)c2ccccc2)n1 | -16.8
107 | CNC(=O)CCS(=O)(=O)Cc1nnnn1-c1ccccc1 | -3.85
108 | CCn1cnnc1CNC(=O)NCC(C(C)C)N1CCOCC1 (centres undefined) | -13
109 | CCn1cnnc1CNC(=O)NCC(C(C)C)N1CCC(C)CC1 (centres undefined) | 10.3
110 | Cc1nc(CSc2ccc(C(F)(F)F)cn2)no1 | -9.49
111 | Cc1cc(NC(=O)NCc2ccc(S(=O)(=O)N3CCCC3)s2)no1 | -7.64
112 | CCn1cnnc1CNC(=O)NCC(C)(CC)N1CCOCC1 (centres undefined) | -9.65
113 | CCn1cnnc1CNC(=O)N(C)Cc1ccccc1OC | -4
114 | CCS(=O)(=O)Cc1nnnn1-c1ccccc1 | -8.76
115 | CCOCC(=O)Nc1ccc(N2CCSCC2)cc1C | -7.62
116 | Cc1c(CS(C)(=O)=O)cccc1NC(=O)CC1CCCC1 | -7.53
117 | Cc1cc(C(=O)NCC2CCC3(CC2)OCCO3)[nH]n1 | 1.56
118 | C1CCC(CNC2CCCN(Cc3noc(C4CC4)n3)C2)CC1 (centres undefined) | -15.3
119 | O=C(NCc1ccccc1Cn1cncn1)N1CCCC1 | -12.2
